Data from patent US12209112B2, “Methods of preventing or treating diseases, conditions, or disorders associated with chemotherapy” (The Chinese University of Hong Kong, priority 2022, dated 2025).

Key:
[1] = test system: hESC-CMs; assay: Nuclear condensation by Hoechst 33342 stain (cardiomyocyte apoptosis); assay type: cell-based, human
Description: To evaluate mitochondrial morphology as a surrogate of cell and mitochondrial viability, hESC-CMs were incubated in B27+/RPMI−1640 media containing 50 nmol/L MitoTracker Deep Red (MTDR) (Thermo Fisher Scientific, USA), and 1 μg/ml Hoechst 33342 (Thermo Fisher Scientific, USA) for 20 minutes. Microscopic images were acquired using DMi8s Research Inverted Thunder Imager Live Cell System (Leica, Germany). For MTDR and Hoechst 33342 imaging, excitation wavelengths of […] and 480 nm, respectively, were used. Mitochondrial morphology was classified into three categories: i) elongated, ii) punctate, and iii) perinuclear. Nuclear morphology was classified as either condensed or normal.

[2] = test system: C57BL/6J male mice; assay: Noninvasive blood pressure in mouse doxorubicin cardiotoxicity model; assay type: in vivo; conditions: for Day 28 DBP / Day 28 SBP: after doxorubicin 5 mg/kg intraperitoneal once weekly for four weeks (Dox + groups); for Day 28 DBP / Day 28 SBP / Day 0 DBP / Day 0 SBP: n = 4 per group; for Day 0 DBP / Day 0 SBP: before doxorubicin administration
From the text: Recombinant human GDF15/MIC-1 protein (CHO-derived) was purchased from PeproTech Inc. (Cranbury, USA) and described in Example 1. […] PubChem identifier number 71384) were purchased from Abcam (Cambridge, UK). For in vitro studies, solid lyophilized powder of these two drugs were solubilized at the recommended concentrations in sterile water, and separate aliquots were made and frozen until thawing prior to addition to cell cultures. […] The recommended dose ratio of dexrazoxane to doxorubicin was 10 to 1. In the following examples, 5 mg/kg of doxorubicin was used which correspond to 50 mg/kg of dexrazoxane. The FDA recommends that dexrazoxane be injected within 0.5 hour prior to doxorubicin infusion in individuals. This was followed in the same manner when applying to the test animals. Ten- to twelve-week old C57BL/6J male mice were purchased from the Laboratory Animal Services Centre of CUHK. They were maintained in specific pathogen-free facility of the CUHK Laboratory Animal Services Centre Research Unit at Prince of Wales Hospital with free access to food and water and maintained in a light/night cycle of 12 hours/12 hours. All mice were fed a standard diet. Blood pressure of animals was measured using the noninvasive CODA® High Throughput System (Torrington, USA) in accordance with the manufacturer's instructions. Measurement platform was prewarmed and maintained at 33-35° C. O-cuffs and VPR-cuffs were used as instructed. Blood pressure of each mouse was measured for at least three cycles. Mice were released and returned to their cages immediately after measurement. Blood pressure was measured twice, once at the beginning of the experiment and once before sacrifice. To induce cardiotoxicity in the mouse, four weekly intraperitoneal injections of doxorubicin at 5 mg/kg were administered. After one dose of doxorubicin at 5-6 mg/kg in a mouse, the level of exposure has been estimated to be similar to that of a human individual being given a standard dose of doxorubicin at approximately 60 mg/m^2.

[3] = test system: C57BL/6J male mice; assay: TUNEL staining of mouse myocardium (cardiomyocyte apoptosis); assay type: in vivo; conditions: pretreatment before doxorubicin
Description: Recombinant human GDF15/MIC-1 protein (CHO-derived) was purchased from PeproTech Inc. (Cranbury, USA) and described in Example 1. […] For in vitro studies, solid lyophilized powder of these two drugs were solubilized at the recommended concentrations in sterile water, and separate aliquots were made and frozen until thawing prior to addition to cell cultures. For in vivo studies, all agents were dissolved in […] normal saline according to the required concentrations (doxorubicin, 5 mg/kg; GDF15, 0.5 mg/kg; dexrazoxane, […]), and the final volume of each intraperitoneal injection was 100 μl. The recommended dose ratio of dexrazoxane to doxorubicin was 10 to 1. In the following examples, 5 mg/kg of doxorubicin was used which correspond to 50 mg/kg of dexrazoxane. The FDA recommends that dexrazoxane be injected within 0.5 hour prior to doxorubicin infusion in individuals. This was followed in the same manner when applying to the test animals.
To induce cardiotoxicity in the mouse, four weekly intraperitoneal injections of doxorubicin at 5 mg/kg were administered. After one dose of doxorubicin at 5-6 mg/kg in a mouse, the level of exposure has been estimated to be similar to that of a human individual being given a standard dose of doxorubicin at approximately 60 mg/m^2. […]

COc1cccc2c1C(=O)c1c(O)c3c(c(O)c1C2=O)C[C@@](O)(C(=O)CO)C[C@@H]3OC1C[C@H](N)[C@H](O)[C@H](C)O1.Cl (stereo partly drawn) [Dox, (8S,10S)-10-[(3-Amino-2,3,6-trideoxy-L-lyxohexopyranosyl)oxy]-7,8,9,10-tetrahydro-6,8,11-trihydroxy-8-(hydroxyacetyl)-1-methoxynaphthacene-5,12-dione hydrochloride, reference compound]
hESC-CMs displaying nuclear condensation ([1]; doxorubicin-treated, no pretreatment): > 40%
Day 28 DBP [2]: 119 ± 7 mmHg
Day 28 SBP [2]: 146 ± 7 mmHg
Day 0 DBP [2]: 87 ± 15 mmHg
Day 0 SBP [2]: 116 ± 13 mmHg

GDF15: commercially available recombinant human GDF-15 protein (PeproTech 120-28C), CHO cell-derived, SEQ ID NO: 1
extent of nuclear condensation compared with dexrazoxane ([1]; hESC-CMs, pretreatment in the presence of Dox): performed similarly to dexrazoxane
hESC-CMs displaying nuclear condensation ([1]; pretreated with 300 ng/ml GDF15, then doxorubicin): 12.8±1.7%
systolic and diastolic blood pressure ([2]; GDF15 5 mg/kg intraperitoneal before doxorubicin, compared with doxorubicin only): significantly lowered
Day 28 DBP [2]: 88 ± 5 mmHg
Day 28 SBP [2]: 121 ± 5 mmHg
Day 0 DBP [2]: 83 ± 17 mmHg
Day 0 SBP [2]: 117 ± 12 mmHg
cardiomyocyte death by apoptosis (TUNEL staining) [3]: reduced extent of cardiomyocyte death by apoptosis
